Laboratory results taken from ChEMBL document CHEMBL3885861, “Open TG-GATES”.

Species: Rattus norvegicus
Experiment: Open TG-GATES - Regimen: Daily Repeat
Assay type: toxicity, organism-based, Sprague-Dawley
Set-up: regimen Daily Repeat, gender Male, age 6 weeks
Settings: in vivo, po, 200 mg/kg, route gavage, dose level Middle; for APTT / Bas / Eos / Fbg / Hb / Ht / Lym / MCH / MCHC / MCV / Mono / Neu / PT / Plat / RBC / Ret / WBC: tissue Blood
[1] = 72 h, tissue Kidney, time 3 day
[2] = 72 h, tissue Plasma, time 3 day

C[C@](N)(Cc1ccc(O)c(O)c1)C(=O)O [METHYLDOPA]
TERMINAL_BW (72 h, time 3 day): 196.2 g | APTT (72 h, time 3 day): 15.9 s | Bas (72 h, time 3 day): 0% | Eos (72 h, time 3 day): 0.8% | Fbg (72 h, time 3 day): 292.8 mg/dL | Hb (72 h, time 3 day): 13.8 g/dL | Ht (72 h, time 3 day): 40.6% | Lym (72 h, time 3 day): 79.4% | MCH (72 h, time 3 day): 22.1 pg | MCHC (72 h, time 3 day): 34% | MCV (72 h, time 3 day): 65 fL | Mono (72 h, time 3 day): 2.6% | Neu (72 h, time 3 day): 16.4% | PT (72 h, time 3 day): 12.7 s | Plat (72 h, time 3 day): 107.2 x10_4/uL | RBC (72 h, time 3 day): 626 x10_4/ul | Ret (72 h, time 3 day): 7.2% | WBC (72 h, time 3 day): 59.1 x10_2/uL | KIDNEY_L [1]: 0.9 g | KIDNEY_R [1]: 0.9 g | KIDNEY_TOTAL [1]: 1.9 g | LIVER (72 h, tissue Liver, time 3 day): 8.5 g | A/G [2]: 0.9 | ALP [2]: 1722.4 IU/L | ALT [2]: 53.4 IU/L | AST [2]: 73 IU/L | BUN [2]: 16.6 mg/dL | CRE [2]: 0.2 mg/dL | Ca [2]: 11.2 mg/dL | Cl [2]: 105.8 meq/L | DBIL [2]: 0.008 mg/dL | GLC [2]: 174 mg/dL | IP [2]: 8.4 mg/dL | K [2]: 4.5 meq/L | LDH [2]: 71.4 IU/L | Na [2]: 145.8 meq/L | PL [2]: 144 mg/dL | RALB [2]: 2.7 g/dL | TBIL [2]: 0.062 mg/dL | TC [2]: 97 mg/dL | TG [2]: 34 mg/dL | TP [2]: 5.8 g/dL | gamma-GTP [2]: 1 IU/L | TERMINAL_BW ([…], time 7 day): 218.2 g | TERMINAL_BW ([…], time 14 day): 271 g | TERMINAL_BW ([…], time 28 day): 346.4 g | APTT ([…], time 7 day): 17.4 s | Bas ([…], time 7 day): 0% | Eos ([…], time 7 day): 1% | Fbg ([…], time 7 day): 269.4 mg/dL | Hb ([…], time 7 day): 14.1 g/dL | Ht ([…], time 7 day): 40.6% | Lym ([…], time 7 day): 78.8% | MCH ([…], time 7 day): 21.5 pg | MCHC ([…], time 7 day): 34.7% | MCV ([…], time 7 day): 61.9 fL | Mono ([…], time 7 day): 3.6% | Neu ([…], time 7 day): 16.2% | PT ([…], time 7 day): 12.2 s | Plat ([…], time 7 day): 122.9 x10_4/uL | RBC ([…], time 7 day): 656.4 x10_4/ul | Ret ([…], time 7 day): 4.5% | WBC ([…], time 7 day): 71.2 x10_2/uL | APTT ([…], time 14 day): 16.1 s | Bas ([…], time 14 day): 0% | Eos ([…], time 14 day): 1% | Fbg ([…], time 14 day): 278.2 mg/dL | Hb ([…], time 14 day): 13.8 g/dL | Ht ([…], time 14 day): 39.5% | Lym ([…], time 14 day): 80.6% | MCH ([…], time 14 day): 20.9 pg | MCHC ([…], time 14 day): 34.9% | MCV ([…], time 14 day): 59.9 fL | Mono ([…], time 14 day): 1.8% | Neu ([…], time 14 day): 16.2% | PT ([…], time 14 day): 14.2 s | Plat ([…], time 14 day): 111.8 x10_4/uL | RBC ([…], time 14 day): 659.4 x10_4/ul | Ret ([…], time 14 day): 4.9% | WBC ([…], time 14 day): 82.5 x10_2/uL | APTT ([…], time 28 day): 17.8 s | Bas ([…], time 28 day): 0% | Eos ([…], time 28 day): 1.2% | Fbg ([…], time 28 day): 280 mg/dL | Hb ([…], time 28 day): 15.1 g/dL | Ht ([…], time 28 day): 43%
